# Source: patent publication US9296723B2, “NAMPT inhibitors” (AbbVie Inc., priority 2012, dated 2016)
# pIC50: −log10 of the molar value.
# How the values were obtained:
# NAMPT [1] = molecular target: T1, NAMPT (Homo sapiens, UniProt P43490); test: Time-Resolved Fluorescence Resonance Energy Transfer (TR-FRET) Binding Assay of NAMPT; details: 6.8 nM NAMPT, 200 nM probe, equilibrated 3 hours, no substrates
# Outline: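 Compound was mixed with enzyme, probe and antibody and equilibrated 3 h at room temperature. TR-FRET read at Ex 337 nm, Em 520/495 nm. Ratios were normalized to controls and fitted to a four-parameter logistic equation for IC50.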
# NAMPT [2] = molecular target: T1, NAMPT; test: TR-FRET Binding Assay of NAMPT with PRPP; details: 2 nM NAMPT, 2 nM probe, 200 µM PRPP and 2.5 mM ATP, equilibrated 16 hours
# Outline: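 TR-FRET probe displacement with 2 nM NAMPT, 2 nM probe and 1 nM Tb-anti-His antibody in the presence of 200 µM PRPP and 2.5 mM ATP, 2% DMSO (all final). Equilibrated 16 hours before reading to permit possible enzymatic modification of compounds.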
# PC3 cells = test: NAMPT Cell Proliferation Assay (Cell Titer Glo); format: cell-based; details: Homo sapiens, PC-3, 120 h, incubated 5 days, cell viability
# Outline: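 PC3 cells (500/well, RPMI with 10% heat-inactivated FBS) were exposed to 10-fold compound dilutions from […] for 5 days at 37 °C, 5% CO2. Viability was read with Cell Titer Glo; IC50 from sigmoidal fit of percent inhibition.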
# T1 sequence (P43490 whole entry): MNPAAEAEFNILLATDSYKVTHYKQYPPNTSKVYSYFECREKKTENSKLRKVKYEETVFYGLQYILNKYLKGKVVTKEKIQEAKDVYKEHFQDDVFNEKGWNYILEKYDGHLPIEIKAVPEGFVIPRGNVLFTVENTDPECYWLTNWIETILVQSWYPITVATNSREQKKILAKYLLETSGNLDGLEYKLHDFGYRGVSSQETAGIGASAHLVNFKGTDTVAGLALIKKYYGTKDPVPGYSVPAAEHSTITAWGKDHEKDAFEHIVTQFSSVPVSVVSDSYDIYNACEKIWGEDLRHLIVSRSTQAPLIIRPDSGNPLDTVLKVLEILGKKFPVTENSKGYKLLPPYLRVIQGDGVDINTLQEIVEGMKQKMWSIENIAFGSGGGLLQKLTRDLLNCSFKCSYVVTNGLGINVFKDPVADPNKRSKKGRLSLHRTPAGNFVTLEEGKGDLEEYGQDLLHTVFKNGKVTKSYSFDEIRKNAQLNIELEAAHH
Structure (SMILES),pIC50 (NAMPT [1]),pIC50 (NAMPT [2]),pIC50 (PC3 cells)
"O=C(CC1CCCCC1)N1CC[C@@H](Oc2ccc(NC(=O)N3CC(c4cccnc4)C3)cc2)C1 [Example 317, N-(4-{[(3R)-1-(cyclohexylacetyl)pyrrolidin-3-yl]oxy}phenyl)-3-(pyridin-3-yl)azetidine-1-carboxamide]",7.52,9.68,7.26
"CC(=O)N[C@@H](CC(C)C)C(=O)N1CC[C@@H](Oc2ccc(NC(=O)N3CC(c4cccnc4)C3)cc2)C1 [Example 318, N-(4-{[(3R)-1-(N-acetyl-L-leucyl)pyrrolidin-3-yl]oxy}phenyl)-3-(pyridin-3-yl)azetidine-1-carboxamide]",6.90,9.38,6.81
"CCC(=O)N1CC[C@@H](Oc2ccc(NC(=O)N3CC(c4cccnc4)C3)cc2)C1 [Example 319, N-(4-{[(3R)-1-propanoylpyrrolidin-3-yl]oxy}phenyl)-3-(pyridin-3-yl)azetidine-1-carboxamide]",7.15,9.37,7.51
"O=C(CCN1CCOCC1)N1CC[C@@H](Oc2ccc(NC(=O)N3CC(c4cccnc4)C3)cc2)C1 [Example 321, N-[4-({(3R)-1-[3-(morpholin-4-yl)propanoyl]pyrrolidin-3-yl}oxy)phenyl]-3-(pyridin-3-yl)azetidine-1-carboxamide]",6.75,9.61,6.92
"Cc1ccc(C(=O)N2CC[C@@H](Oc3ccc(NC(=O)N4CC(c5cccnc5)C4)cc3)C2)s1 [Example 323, N-[4-({(3R)-1-[(5-methylthiophen-2-yl)carbonyl]pyrrolidin-3-yl}oxy)phenyl]-3-(pyridin-3-yl)azetidine-1-carboxamide]",7.38,9.71,7.29
"Cn1cccc1C(=O)N1CC[C@@H](Oc2ccc(NC(=O)N3CC(c4cccnc4)C3)cc2)C1 [Example 325, N-[4-({(3R)-1-[(1-methyl-1H-pyrrol-2-yl)carbonyl]pyrrolidin-3-yl}oxy)phenyl]-3-(pyridin-3-yl)azetidine-1-carboxamide]",7.73,9.44,7.95
"O=C(Nc1ccc(O[C@@H]2CCN(C(=O)c3ccco3)C2)cc1)N1CC(c2cccnc2)C1 [Example 326, N-(4-{[(3R)-1-(furan-2-ylcarbonyl)pyrrolidin-3-yl]oxy}phenyl)-3-(pyridin-3-yl)azetidine-1-carboxamide]",7.49,9.53,7.78
"CCC(C)(C)C(=O)N1CC[C@@H](Oc2ccc(NC(=O)N3CC(c4cccnc4)C3)cc2)C1 [Example 330, N-(4-{[(3R)-1-(2,2-dimethylbutanoyl)pyrrolidin-3-yl]oxy}phenyl)-3-(pyridin-3-yl)azetidine-1-carboxamide]",7.66,9.44,7.91
"COCC(=O)N1CC[C@@H](Oc2ccc(NC(=O)N3CC(c4cccnc4)C3)cc2)C1 [Example 331, N-(4-{[(3R)-1-(methoxyacetyl)pyrrolidin-3-yl]oxy}phenyl)-3-(pyridin-3-yl)azetidine-1-carboxamide]",7.09,9.45,7.37
"CC(C)CC(=O)N1CC[C@@H](Oc2ccc(NC(=O)N3CC(c4cccnc4)C3)cc2)C1 [Example 333, N-(4-{[(3R)-1-(3-methylbutanoyl)pyrrolidin-3-yl]oxy}phenyl)-3-(pyridin-3-yl)azetidine-1-carboxamide]",7.25,9.38,7.65
"CC(C)C(C)C(=O)N1CC[C@@H](Oc2ccc(NC(=O)N3CC(c4cccnc4)C3)cc2)C1 (stereo partly drawn) [Example 335, N-(4-{[(3R)-1-(2,3-dimethylbutanoyl)pyrrolidin-3-yl]oxy}phenyl)-3-(pyridin-3-yl)azetidine-1-carboxamide]",7.34,9.31,7.80

# The remaining lines, values ahead:
pIC50 (NAMPT [1]),pIC50 (NAMPT [2]),pIC50 (PC3 cells),Structure (SMILES)
6.68,9.39,6.81,"COCCOCC(=O)N1CC[C@@H](Oc2ccc(NC(=O)N3CC(c4cccnc4)C3)cc2)C1 [Example 320, N-[4-({(3R)-1-[(2-methoxyethoxy)acetyl]pyrrolidin-3-yl}oxy)phenyl]-3-(pyridin-3-yl)azetidine-1-carboxamide]"
7.68,9.44,8.20,"O=C(Nc1ccc(O[C@@H]2CCN(C(=O)c3cccs3)C2)cc1)N1CC(c2cccnc2)C1 [Example 324, 3-(pyridin-3-yl)-N-(4-{[(3R)-1-(thiophen-2-ylcarbonyl)pyrrolidin-3-yl]oxy}phenyl)azetidine-1-carboxamide]"
6.80,9.46,7.28,"CCOCC(=O)N1CC[C@@H](Oc2ccc(NC(=O)N3CC(c4cccnc4)C3)cc2)C1 [Example 328, N-(4-{[(3R)-1-(ethoxyacetyl)pyrrolidin-3-yl]oxy}phenyl)-3-(pyridin-3-yl)azetidine-1-carboxamide]"
7.52,9.56,7.84,"CC(C)(C)CC(=O)N1CC[C@@H](Oc2ccc(NC(=O)N3CC(c4cccnc4)C3)cc2)C1 [Example 329, N-(4-{[(3R)-1-(3,3-dimethylbutanoyl)pyrrolidin-3-yl]oxy}phenyl)-3-(pyridin-3-yl)azetidine-1-carboxamide]"
7.21,9.32,7.65,"O=C(Nc1ccc(O[C@@H]2CCN(C(=O)C3CCCCC3)C2)cc1)N1CC(c2cccnc2)C1 [Example 332, N-(4-{[(3R)-1-(cyclohexylcarbonyl)pyrrolidin-3-yl]oxy}phenyl)-3-(pyridin-3-yl)azetidine-1-carboxamide]"
7.02,9.35,7.49,"O=C(Nc1ccc(O[C@@H]2CCN(C(=O)C3CCCC3)C2)cc1)N1CC(c2cccnc2)C1 [Example 334, N-(4-{[(3R)-1-(cyclopentylcarbonyl)pyrrolidin-3-yl]oxy}phenyl)-3-(pyridin-3-yl)azetidine-1-carboxamide]"
